Results taken from US9181197B2 (priority 2008, dated 2015).
Several values for one entry are separate records, joined by “and”; a condition that tells them apart may be missing. Equal entries are not always repeated. Entries after “also recorded” stand apart in the source; their conditions may differ. Where two headings read alike, the source gives them in different places.

Tests used:
rats [1] = assay: loss of righting reflex (LORR) in rats after IV bolus; format: in vivo; conditions: for ED50: Rattus norvegicus; for ED50 / slope of duration of LORR versus logarithm of anesthetic dose: rats, IV bolus; for anesthetic toxicity in rats: highest doses
Protocol: Rats were briefly restrained in a 3 inch diameter, 9 inch long acrylic chamber with a tail exit port. The desired dose of anesthetic was injected through a lateral tail vein catheter followed by an approximately 1 ml normal saline flush. Immediately after injection, rats were removed from the restraint device and turned supine. […] A stop-watch was used to measure the duration of LORR, which was defined as the time from drug injection until the animal spontaneously righted itself. The ED50 for LORR upon bolus anesthetic administration was determined from the anesthetic dose-dependence of LORR.

rats [2] = assay: heart rate and blood pressure in rats at equianesthetic doses; conditions: for increase in heart rate shortly after injection / duration of significant effect on mean blood pressure / maximum decrease in mean blood pressure relative to baseline: IV, twice ED50 for LORR; for maximum decrease in mean blood pressure relative to baseline: n=3
rats [3] = conditions: rat, in vivo, iv
[4] = target: T1, Human GABAA receptors composed of α1β2γ2L subunits (Homo sapiens, UniProt P14867+P47870); assay: two-microelectrode voltage clamp of GABAA receptor currents in Xenopus oocytes; format: cell-based; conditions: for enhancement of amplitudes of GABA-evoked currents: EC5-10 GABA, each anesthetic at its anesthetic EC50 (8 μM MOC-(R)-etomidate, 2 μM (R)-etomidate), n=6 oocytes; for direct activation of GABAA receptors: before application of GABA
T1 construct: expressed in transfected cells; host or cells: Xenopus laevis oocytes
T1 sequence (P14867 28-456): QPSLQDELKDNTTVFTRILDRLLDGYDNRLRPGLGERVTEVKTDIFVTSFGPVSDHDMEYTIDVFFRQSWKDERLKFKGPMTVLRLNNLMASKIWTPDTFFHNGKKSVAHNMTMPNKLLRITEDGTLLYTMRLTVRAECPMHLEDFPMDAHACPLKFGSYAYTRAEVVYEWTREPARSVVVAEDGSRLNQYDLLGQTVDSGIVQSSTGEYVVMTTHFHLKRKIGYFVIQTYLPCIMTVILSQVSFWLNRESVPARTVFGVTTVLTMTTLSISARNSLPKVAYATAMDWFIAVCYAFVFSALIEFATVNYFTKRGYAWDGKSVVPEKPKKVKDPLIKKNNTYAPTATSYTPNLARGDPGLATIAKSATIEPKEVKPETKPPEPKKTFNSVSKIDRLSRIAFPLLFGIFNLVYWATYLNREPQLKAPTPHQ
T1 sequence (P47870 25-512 limits assumed): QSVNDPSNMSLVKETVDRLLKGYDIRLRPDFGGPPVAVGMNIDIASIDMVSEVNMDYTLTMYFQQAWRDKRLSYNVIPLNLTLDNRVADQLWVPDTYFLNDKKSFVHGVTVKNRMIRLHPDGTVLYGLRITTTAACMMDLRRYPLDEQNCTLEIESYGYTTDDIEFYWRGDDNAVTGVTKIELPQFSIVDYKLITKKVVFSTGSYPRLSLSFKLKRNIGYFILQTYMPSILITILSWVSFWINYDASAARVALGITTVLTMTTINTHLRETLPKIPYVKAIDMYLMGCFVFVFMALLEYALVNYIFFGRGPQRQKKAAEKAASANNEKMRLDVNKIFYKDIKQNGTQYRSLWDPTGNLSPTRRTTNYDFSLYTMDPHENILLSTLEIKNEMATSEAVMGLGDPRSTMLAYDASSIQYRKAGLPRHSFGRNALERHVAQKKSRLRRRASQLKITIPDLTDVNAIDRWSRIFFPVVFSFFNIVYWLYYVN
T1 sequence (P18507 40-475 partner): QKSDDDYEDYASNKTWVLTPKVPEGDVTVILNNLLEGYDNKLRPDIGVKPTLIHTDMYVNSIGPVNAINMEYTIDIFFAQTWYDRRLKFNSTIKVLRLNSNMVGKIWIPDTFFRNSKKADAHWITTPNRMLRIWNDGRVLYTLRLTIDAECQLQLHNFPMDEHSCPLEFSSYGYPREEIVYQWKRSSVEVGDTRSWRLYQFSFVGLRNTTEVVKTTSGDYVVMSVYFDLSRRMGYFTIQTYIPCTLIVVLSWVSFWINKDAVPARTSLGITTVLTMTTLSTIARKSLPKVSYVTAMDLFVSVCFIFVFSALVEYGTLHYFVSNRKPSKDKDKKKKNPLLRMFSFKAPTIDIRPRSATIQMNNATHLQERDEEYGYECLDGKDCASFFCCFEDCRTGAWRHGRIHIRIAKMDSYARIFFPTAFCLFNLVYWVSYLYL

rats [5] = assay: ACTH1-24-stimulated serum corticosterone in rats (adrenocortical function); conditions: 30 min after equianesthetic dose
Xenopus laevis tadpoles [6] = assay: tadpole loss of righting reflex assay
[7] = in-vitro metabolism in pooled human S9 liver fraction; conditions: for half-life at 10 μM: human, s9; for rate of metabolism relative to (R)-etomidate: liver enzymes, S9
animals = conditions: LD50/ED50; cited from earlier work
humans = conditions: Arden et al. 1986; cited from earlier work
patients = conditions: cited from earlier work
Xenopus laevis tadpoles [8] = conditions: Husain et al. 2003, read-out: EC50 / free-aqueous concentration inducing loss of righting reflexes in tadpoles; cited from earlier work

CCOC(=O)c1cncn1[C@H](C)c1ccccc1 (stereo in doubt) [(R)-etomidate, ethyl 3-(1-phenylethyl)imidazole-4-carboxylate]
ED50 (rats [1]): 1 ± 0.03 mg/kg | anesthetic toxicity in rats (rats [1]): no obvious anesthetic toxicity | slope of duration of LORR versus logarithm of anesthetic dose (rats [1]): 27±7 | increase in heart rate shortly after injection (rats [2]): 49±67 BPM | duration of significant effect on mean blood pressure (rats [3]): 6.5 min | maximum decrease in mean blood pressure relative to baseline (rats [3]): −36±11 mmHg

COC(=O)CCOC(=O)c1cncn1[C@H](C)c1ccccc1 [MOC-(R)-etomidate, (R)-3-Methoxy-3-oxopropyl1-(1-phenylethyl)-1H-imidazole-5-carboxylate]
enhancement of amplitudes of GABA-evoked currents [4]: 450±130% | direct activation of GABAA receptors [4]: evoked small currents | ACTH1-24-stimulated corticosterone concentration versus vehicle (rats [5]): not different from those that had received only vehicle; also recorded: no reduction; also recorded: unchanged versus control | ED50 (rats [1]): 5.2 ± 1 mg/kg | duration of LORR shorter versus propofol or (R)-etomidate (rats [1]; equianesthetic doses): ~10 fold | anesthetic toxicity in rats (rats [1]): no obvious anesthetic toxicity | slope of duration of LORR versus logarithm of anesthetic dose (rats [1]): 2.8±0.4 | anesthetic potency relative to (R)-etomidate's potency (rats [1]; two species (tadpoles, rats)): ¼^th-⅕^th | toxicity in tadpoles (Xenopus laevis tadpoles [6]; 0.1-128 μM, recovery in fresh oxygenated water): No evidence of toxicity was observed | EC50 (Xenopus laevis tadpoles [6]; Xenopus laevis, read-out: anesthetic EC50 (loss of righting reflexes)): 8000 ± 2000 nM | fraction of tadpoles anesthetized (Xenopus laevis tadpoles [6]; highest concentrations, 48-128 μM): all tadpoles were anesthetized | duration of significant effect on mean blood pressure (rats [2]): 30 s | increase in heart rate shortly after injection (rats [2]): 24±33 BPM | maximum decrease in mean blood pressure relative to baseline (rats [2]): −11±15 mmHg | duration of reduction in blood pressure (rats [2]; summary): 30 s | percent of original concentration remaining ([7]; by 40 min): < 1% | percent metabolized ([7]; by 40 min, +NADPH, 37° C.): more than 99% | concentration remaining ([7]; by 40 min, start 10 μM): < 100 nM | half-life at 10 μM [7]: 4.2 min | rate of metabolism relative to (R)-etomidate [7]: at least 100 fold | rate of metabolism relative to (R)-etomidate ([7]; listed as MOC-(R)-Etomidate): > 100 fold

CC(C)c1cccc(C(C)C)c1O [propofol]
therapeutic index (animals): 3.1 | ED50 (rats [1]): 4.1 ± 0.3 mg/kg | anesthetic toxicity in rats (rats [1]): no obvious anesthetic toxicity | slope of duration of LORR versus logarithm of anesthetic dose (rats [1]): 22±4 | duration of significant effect on mean blood pressure (rats [2]): 420 s | increase in heart rate shortly after injection (rats [2]): 64±56 BPM | maximum decrease in mean blood pressure relative to baseline (rats [2]): −51±19 mmHg

O=C1CC2(CCCC2)CC(=O)N1CCCCN1CCN(c2ncccn2)CC1 [buspirone]
half-life at 10 μM [7]: 15.4 min

CCOC(=O)c1cncn1[C@H](C)c1ccccc1 [(R)-etomidate, ethyl 3-(1-phenylethyl)imidazole-4-carboxylate]
enhancement of amplitudes of GABA-evoked currents [4]: 660±240% | direct activation of GABAA receptors [4]: evoked small currents | ACTH1-24-stimulated corticosterone concentration versus vehicle (rats [5]): significantly lower; also recorded: significantly reduced | free-aqueous concentration inducing loss of responsiveness (humans): ~2 µM | duration of adrenal suppression after single bolus induction dose (patients; critically ill patients): ≥ 24 h | persistence of adrenal insufficiency after discontinuing prolonged infusion (patients; doses producing general anesthesia): more than 4 days | EC50 (Xenopus laevis tadpoles [8]): ~2000 nM and 2000 nM

CCCC(C)C1(CC)C(=O)NC(=S)NC1=O (stereo not shown) [thiopental]
therapeutic index (animals): 4.6
